# Measured values: publication PMC11672637, “7-O-Carboxylic Acid-Substituted 3-O-Alkyl Difluoroquercetin; An Aztreonam-Potentiating Agent Against Carbapenemase-Producing Pseudomonas aeruginosa Through Simultaneous Inhibition of Metallo-β-Lactamase and Efflux Pump” (Antibiotics, 2024)
# Like-named read-outs stand apart in the source and are kept apart here.
# Legend:
# PA-014, blaGES = assay: MIC / checkerboard with ATM; assay type: cell-based, P. aeruginosa; design: key to Susceptibility category: S: susceptible; I: intermediate; R: resistant
# PA-003, blaVIM = assay: MIC / checkerboard with ATM; assay type: cell-based, P. aeruginosa; design: key to Susceptibility category: S: susceptible; I: intermediate; R: resistant
# PA-029, blaIMP = assay: MIC / checkerboard with ATM; assay type: cell-based, P. aeruginosa; design: key to Susceptibility category: S: susceptible; I: intermediate; R: resistant; conditions: for MIC: Pseudomonas aeruginosa
# PA-032, blaIMP = assay: MIC / checkerboard with ATM; assay type: cell-based, P. aeruginosa; design: key to Susceptibility category: S: susceptible; I: intermediate; R: resistant; conditions: for MIC: Pseudomonas aeruginosa
# PA-025, blaNDM = assay: MIC / checkerboard with ATM; assay type: cell-based, P. aeruginosa; design: key to Susceptibility category: S: susceptible; I: intermediate; R: resistant; conditions: PA-025
# PA-031, blaNDM = assay: MIC / checkerboard with ATM; assay type: cell-based, P. aeruginosa; design: key to Susceptibility category: S: susceptible; I: intermediate; R: resistant; conditions: for MIC: Pseudomonas aeruginosa
# PA-033, blaNDM = assay: MIC / checkerboard with ATM; assay type: cell-based, P. aeruginosa; design: key to Susceptibility category: S: susceptible; I: intermediate; R: resistant; conditions: for MIC: Pseudomonas aeruginosa
# PA-037, blaIMP/NDM = assay: MIC / checkerboard with ATM; assay type: cell-based, P. aeruginosa; design: key to Susceptibility category: S: susceptible; I: intermediate; R: resistant; conditions: for MIC: Pseudomonas aeruginosa
# All CPPA (n = 26) = assay: MIC distribution over clinical isolates; assay type: cell-based, P. aeruginosa; conditions: Pseudomonas aeruginosa
# [1] = test system: wild-type P. aeruginosa (ATCC 27853); assay: Time–kill assay; assay type: cell-based; conditions: 24 h
# Method: Aliquots (50 μL) were taken from the incubation mixture at regular time intervals (t = 0, 3, 6, and 24 h), serially diluted in 0.85% NaCl solution, and plated on BAP. Bacterial colonies were counted, and the data are presented as the means of at least three independent experiments.
smiles,measurement,setting,value
"C[C@H]1[C@H](NC(=O)/C(=N\OC(C)(C)C(=O)O)c2csc(N)n2)C(=O)N1S(=O)(=O)O [ATM, aztreonam]",Susceptibility to ATM,"PA-014, blaGES; PA-014, ATM alone","I (I (intermediate, MIC = 16 mg/L))"
same,Susceptibility category,"PA-014, blaGES; PA-014, Table S2",I
same,MIC,"PA-014, blaGES; Pseudomonas aeruginosa, read-out: MIC of ATM, PA-014, ATM alone (5 at 0 mg/L)",16 µg/mL
same,Susceptibility to ATM,"PA-003, blaVIM; PA-003, ATM alone","R (R (resistant, MIC ≥ 32 mg/L))"
same,Susceptibility category,"PA-003, blaVIM; PA-003, Table S2",I
same,MIC,"PA-003, blaVIM; Pseudomonas aeruginosa, read-out: MIC of ATM",32 µg/mL
same,Susceptibility to ATM,"PA-029, blaIMP; PA-029, ATM alone","R (R (resistant, MIC ≥ 32 mg/L))"
same,Susceptibility category,"PA-029, blaIMP; PA-029, Table S2",R
same,MIC,"PA-029, blaIMP; PA-029, Table S2, read-out: MIC value",32 µg/mL
same,MIC,"PA-029, blaIMP; read-out: MIC of ATM, PA-029, ATM alone (5 at 0 mg/L)",32 µg/mL
same,Susceptibility to ATM,"PA-032, blaIMP; PA-032, ATM alone","S (S (sensitive, MIC ≤ 8 mg/L))"
same,Susceptibility category,"PA-032, blaIMP; PA-032, Table S2",S
same,MIC,"PA-032, blaIMP; PA-032, Table S2, read-out: MIC value",4 µg/mL
same,MIC,"PA-032, blaIMP; read-out: MIC of ATM, PA-032, ATM alone (5 at 0 mg/L)",4 µg/mL
same,Susceptibility to ATM,"PA-025, blaNDM; ATM alone","I (I (intermediate, MIC = 16 mg/L))"
same,Susceptibility category,"PA-025, blaNDM; Table S2",I
same,Susceptibility to ATM,"PA-031, blaNDM; PA-031, ATM alone","S (S (sensitive, MIC ≤ 8 mg/L))"
same,Susceptibility category,"PA-031, blaNDM; PA-031, Table S2",S
same,MIC,"PA-031, blaNDM; PA-031, Table S2, read-out: MIC value",8 µg/mL
same,MIC,"PA-031, blaNDM; read-out: MIC of ATM, PA-031, ATM alone (5 at 0 mg/L)",4 µg/mL
same,Susceptibility to ATM,"PA-033, blaNDM; PA-033, ATM alone","S (S (sensitive, MIC ≤ 8 mg/L))"
same,Susceptibility category,"PA-033, blaNDM; PA-033, Table S2",S
same,MIC,"PA-033, blaNDM; PA-033, Table S2, read-out: MIC value",2 µg/mL
same,MIC,"PA-033, blaNDM; read-out: MIC of ATM, PA-033, ATM alone (5 at 0 mg/L)",2 µg/mL
same,Susceptibility to ATM,"PA-037, blaIMP/NDM; PA-037, ATM alone","S (S (sensitive, MIC ≤ 8 mg/L))"
same,Susceptibility category,"PA-037, blaIMP/NDM; PA-037, Table S2",S
same,MIC,"PA-037, blaIMP/NDM; PA-037, Table S2, read-out: MIC value",2 µg/mL
same,MIC,"PA-037, blaIMP/NDM; read-out: MIC of ATM, PA-037, ATM alone (5 at 0 mg/L)",4 µg/mL
same,MIC50,"All CPPA (n = 26); read-out: MIC50 of ATM, 5 at 0 mg/L",16 µg/mL
same,MIC90,"All CPPA (n = 26); read-out: MIC90 of ATM, 5 at 0 mg/L",32 µg/mL
same,"Log CFU/mL, ATM only",[1]; ATM 1/2 MIC,9.31 Log CFU/mL
same,"Log CFU/mL, ATM only",[1]; ATM 1/4 MIC,9.57 Log CFU/mL
same,"Log CFU/mL, ATM only",[1]; ATM 1 MIC,8.02 Log CFU/mL
same,"Log CFU/mL, ATM only",[1]; ATM 2 MIC,0.17 Log CFU/mL
